Assay results taken from publication PMC9037180, “Ligand-based design and synthesis of N'-Benzylidene-3,4-dimethoxybenzohydrazide derivatives as potential antimicrobial agents; evaluation by in vitro, in vivo, and in silico approaches with SAR studies” (Journal of Enzyme Inhibition and Medicinal Chemistry, 2022).
Values after ≈ are worked out from the molar mass of the structure shown. Read-outs that look alike come from different tables or passages of the source.

How the values were obtained:
[1] = tested on: Aciento sensitive; test: Minimal bactericidal concentration (MBC); format: cell-based, A. baumanii; settings: Acinetobacter baumannii
Protocol: (§1) After determining the MIC for the target compounds, the minimal bactericidal concentration (MBC) for each compound that is required to kill each one of the above-mentioned microorganisms was assessed.

[2] = tested on: S. aureus ATCC 6538; test: Minimal inhibitory concentration (MIC), broth dilution; settings: Staphylococcus aureus, ATCC6538
[3] = tested on: E. faecalis ATCC 29212; test: as above; settings: Enterococcus faecalis, ATCC29212
[4] = tested on: Acientobacter sensitive; test: as above; settings: Acinetobacter baumannii
[5] = tested on: P. aeruginosa ATCC10145; test: as above; settings: Pseudomonas aeruginosa
[6] = tested on: S. typhi clinical isolate; test: as above; format: cell-based; settings: Salmonella enterica, TYPHI
[7] = tested on: E. faecalis; test: Minimal bactericidal concentration (MBC); format: cell-based; settings: Enterococcus faecalis
Protocol: as §1

[8] = tested on: E. faecalis, Acientobacter, P. auriginosa, S. aureus, S. typhi, E. coli, C. albicans; test: Average MIC over the nine tested microbial species (SAR); format: cell-based; settings: for antimicrobial activity (SAR grading): based on MIC average values; for MIC: read-out: Average MIC
From the text: Herein, we aimed to study the structure-antimicrobial activity relationship of the newly synthesised N'-benzylidene-3,4-dimethoxybenzohydrazide derivatives based on MIC average values[51]^,[52] as represented in the supplementary data (Table SI1). Thereby, the changes in their antimicrobial potential and spectrum upon structural modifications could be unveiled, thus offering clues for structural changes that are capable of increasing the antimicrobial potential.

[9] = tested on: S. typhi; test: Minimal bactericidal concentration (MBC); format: cell-based; settings: Salmonella enterica
[10] = tested on: C. albicans MTCC183; test: Minimal inhibitory concentration (MIC), broth dilution; format: cell-based; settings: Candida albicans, MTCC183
From the text: (§2) In vitro evaluation for antifungal activities regarding target compounds (4a–j) as well as reference drug, was done against C. albicans MTCC183 through the zone inhibition technique using well diffusion agar assay in addition to MIC.

[11] = tested on: E. coli ATCC 25922; test: as above; settings: Escherichia coli
[12] = tested on: Aciento MDR; test: as above; settings: Acinetobacter baumannii
[13] = tested on: A. baumanii ATCC 19606; test: as above; settings: Acinetobacter baumannii, ATCC19606
[14] = Cytotoxicity on cells using MTT assay; format: cell-based; settings: African green monkey, Vero cells (normal mammalian cell line)
Protocol: The newly synthesised compounds were looked deeply into their efficacy using in silico, in vitro, and in vivo approaches. On the other hand, the cytotoxicity assay was performed for the tested compounds using a normal mammalian Vero cell line by the MTT assay[31]^,[32].
Moreover, the cytotoxicity values of the target compounds were determined to calculate their corresponding IC50 values through the MTT assay. The IC50 value indicates the compound’s concentration that is required to inhibit 50% of the target cells.
The MTT (3–(4,5-dimethylthiazol-2-yl)-2,5-diphenyltetrazolium bromide) tetrazolium reduction assay protocol was applied to determine the cytotoxicity of the target compounds (4a–j) on cells.

[15] = tested on: E. coli; test: Minimal bactericidal concentration (MBC); format: cell-based; settings: Escherichia coli
Protocol: as §1

[16] = tested on: A. baumanii; test: Minimal bactericidal concentration (MBC); format: cell-based; settings: Acinetobacter baumannii
Protocol: as §1

[17] = tested on: P. Auriginosa; test: Minimal bactericidal concentration (MBC); format: cell-based, P. aeruginosa; settings: Pseudomonas aeruginosa
Protocol: as §1

[18] = tested on: S. aureus; test: Minimal bactericidal concentration (MBC); format: cell-based; settings: Staphylococcus aureus
Protocol: as §1

[19] = tested on: C. albicans; test: Minimal bactericidal concentration (MBC); format: cell-based; settings: Candida albicans
Protocol: as §1

[20] = tested on: C. albicans; test: Agar well diffusion assay (antifungal); format: cell-based; settings: result in words
Protocol: The agar well diffusion assay was first done to evaluate the antimicrobial activities of the different target compounds (4a–j) against gram-positive bacteria, gram-negative bacteria, and fungi (Table 1A). […] First, the antibacterial activities were tested against S. aureus ATCC 6538, Acientobacter (A. baumanii) ATCC 19606, S. typhi, E. coli, and P. aeruginosa as examples of the most common gram-positive and gram-negative bacteria, in comparison to vancomycin and ceftriaxone as two reference standards. In addition, the antifungal activities were screened against C. albicans, in comparison to amphotericin as a reference standard. […] The antibacterial activities of some tested compounds (4a, 4b, 4h, and 4e) against gram-positive and gram-negative bacteria by agar well diffusion assay are represented in the supplementary data (Figure SI1).
as §2
A modification of the agar well diffusion method[55] was done to detect the antimicrobial activities of different compounds (4a–j) against gram-positive bacteria, gram-negative bacteria, and fungi. […] The zones of inhibition were measured in cm.

Compound | MBC [1] [µM] | MIC [2] [µM] | MIC [3] [µM] | MIC [4] [µM] | MIC ([5]; ATCC10145) [µM] | MIC [6] [µM] | MBC [7] [µM] | antimicrobial activity (SAR grading) [8] | MIC [8] [µM] | MBC [9] [µM] | MIC [10] [µM] | MIC ([11]; ATCC25922) [µM] | MIC [12] [µM] | MIC [13] [µM] | MBC [15] [µM] | MBC [17] [µM] | MBC [18] [µM] | also measured
COc1ccc(C(=O)NN=Cc2cc(C(C)(C)C)cc(C(C)(C)C)c2O)cc1OC [Compound 4g, N'-(3,5-di-tert-butyl-2-hydroxybenzylidene)-3,4-dimethoxybenzohydrazide] | 75.9 (≈ 31.3 µg/mL) | 152 (≈ 62.5 µg/mL) | 18.9 (≈ 7.82 µg/mL) | 37.8 (≈ 15.6 µg/mL) | 75.9 (≈ 31.3 µg/mL) | 37.8 (≈ 15.6 µg/mL) | 75.9 (≈ 31.3 µg/mL) | moderate antimicrobial activity | 73.7 (≈ 30.4 µg/mL) | 75.9 (≈ 31.3 µg/mL) | 37.8 (≈ 15.6 µg/mL) | 75.9 (≈ 31.3 µg/mL) | 152 (≈ 62.5 µg/mL) | 75.9 (≈ 31.3 µg/mL) |  |  |  | 
COc1ccc(C(=O)NN=Cc2cc(Cl)cc(Cl)c2O)cc1OC [Compound 4f, N'-(3,5-dichloro-2-hydroxybenzylidene)-3,4-dimethoxybenzohydrazide] | 85 (≈ 31.4 µg/mL) | 170 (≈ 62.7 µg/mL) | 42.4 (≈ 15.7 µg/mL) | 21.2 (≈ 7.83 µg/mL) | 85 (≈ 31.4 µg/mL) | 85 (≈ 31.4 µg/mL) |  | moderate antimicrobial activity | 73.2 (≈ 27 µg/mL) |  | 85 (≈ 31.4 µg/mL) | 42.4 (≈ 15.7 µg/mL) | 85 (≈ 31.4 µg/mL) | 42.4 (≈ 15.7 µg/mL) |  |  |  | IC50 [14]: 2160 µM
COc1ccc(C(=O)NN=Cc2cc(Br)cc(Br)c2O)cc1OC [Compound 4e, N'-(3,5-dibromo-2-hydroxybenzylidene)-3,4-dimethoxybenzohydrazide] | 68.7 (≈ 31.4 µg/mL) | 34.2 (≈ 15.7 µg/mL) | 137 (≈ 62.8 µg/mL) | 17.1 (≈ 7.85 µg/mL) | 68.7 (≈ 31.4 µg/mL) | 68.7 (≈ 31.4 µg/mL) |  | moderate antimicrobial activity | 72.4 (≈ 33.2 µg/mL) |  |  | 17.1 (≈ 7.85 µg/mL) | 137 (≈ 62.8 µg/mL) | 34.2 (≈ 15.7 µg/mL) | 68.7 (≈ 31.4 µg/mL) |  |  | MIC ([10]; C. albicans (CA), read-out: MIC): 137 µM (≈ 62.8 µg/mL)
CO/N=C(\C(=O)N[C@@H]1C(=O)N2C(C(=O)O)=C(CSc3nc(=O)c(=O)[nH]n3C)CS[C@H]12)c1csc(N)n1 [ceftriaxone, reference compound] | 113 (≈ 62.5 µg/mL) | 3.52 (≈ 1.95 µg/mL) |  | 14.1 (≈ 7.81 µg/mL) |  | 14.1 (≈ 7.81 µg/mL) |  |  |  | 225 (≈ 125 µg/mL) |  |  |  |  | 113 (≈ 62.5 µg/mL) | 225 (≈ 125 µg/mL) |  | MBC [16]: 113 µM (≈ 62.5 µg/mL)
COc1ccc(C(=O)NN=Cc2c(C)cc(C)cc2C)cc1OC [Compound 4d, N'-(2,4,6-trimethylbenzylidene)-3,4-dimethoxybenzohydrazide] |  | 47.8 (≈ 15.6 µg/mL) | 96 (≈ 31.3 µg/mL) | 192 (≈ 62.5 µg/mL) | 96 (≈ 31.3 µg/mL) | 96 (≈ 31.3 µg/mL) | 192 (≈ 62.5 µg/mL) | weakest antimicrobial activity | 149 (≈ 48.7 µg/mL) | 192 (≈ 62.5 µg/mL) | 192 (≈ 62.5 µg/mL) | 47.8 (≈ 15.6 µg/mL) | 383 (≈ 125 µg/mL) | 192 (≈ 62.5 µg/mL) | 192 (≈ 62.5 µg/mL) |  | 192 (≈ 62.5 µg/mL) | 
CCCCCCCCCCCCOc1ccc(C=NNC(=O)c2ccc(OC)c(OC)c2)cc1 [Compound 4j, N'-(4-(dodecyloxy)benzylidene)-3,4-dimethoxybenzohydrazide] | 66.8 (≈ 31.3 µg/mL) | 66.8 (≈ 31.3 µg/mL) | 16.7 (≈ 7.82 µg/mL) | 33.3 (≈ 15.6 µg/mL) | 33.3 (≈ 15.6 µg/mL) | 33.3 (≈ 15.6 µg/mL) | 33.3 (≈ 15.6 µg/mL) | moderate antimicrobial activity | 74.2 (≈ 34.7 µg/mL) | 66.8 (≈ 31.3 µg/mL) | 267 (≈ 125 µg/mL) | 66.8 (≈ 31.3 µg/mL) | 134 (≈ 62.6 µg/mL) | 16.7 (≈ 7.82 µg/mL) |  |  |  | MBC [16]: 66.8 µM (≈ 31.3 µg/mL)
CCOc1ccc(C=NNC(=O)c2ccc(OC)c(OC)c2)cc1 [Compound 4b, N'-(4-ethoxybenzylidene)-3,4-dimethoxybenzohydrazide] |  | 95.4 (≈ 31.3 µg/mL) | 381 (≈ 125 µg/mL) | 47.5 (≈ 15.6 µg/mL) | 23.8 (≈ 7.82 µg/mL) | 23.8 (≈ 7.82 µg/mL) |  | weakest antimicrobial activity | 140 (≈ 46 µg/mL) | 95.4 (≈ 31.3 µg/mL) | 95.4 (≈ 31.3 µg/mL) | 23.8 (≈ 7.82 µg/mL) | 381 (≈ 125 µg/mL) | 190 (≈ 62.6 µg/mL) |  | 95.4 (≈ 31.3 µg/mL) |  | MIC ([5]; ATCC10145, 24 h): 23.3 µM (≈ 7.64 µg/mL); MIC ([6]; 24 h): 23.3 µM (≈ 7.64 µg/mL); MIC ([11]; ATCC25922, 24 h): 23.3 µM (≈ 7.64 µg/mL)
COc1ccc(C(=O)NN=Cc2ccc(NC(C)=O)cc2)cc1OC [Compound 4c, N-(4-((2–(3,4-dimethoxybenzoyl)hydrazono)methyl)phenyl)acetamide] |  | 45.7 (≈ 15.6 µg/mL) | 45.7 (≈ 15.6 µg/mL) | 45.7 (≈ 15.6 µg/mL) | 22.9 (≈ 7.81 µg/mL) | 183 (≈ 62.5 µg/mL) | 91.8 (≈ 31.3 µg/mL) | moderate antimicrobial potential | 81.4 (≈ 27.8 µg/mL) |  | 91.8 (≈ 31.3 µg/mL) | 22.9 (≈ 7.81 µg/mL) | 183 (≈ 62.5 µg/mL) | 91.8 (≈ 31.3 µg/mL) |  |  | 91.8 (≈ 31.3 µg/mL) | 
COc1ccc(C(=O)NN=Cc2ccc(N)cc2)cc1OC [Compound 4a, N'-(4-aminobenzylidene)-3,4-dimethoxybenzohydrazide] | 105 (≈ 31.3 µg/mL) | 26.1 (≈ 7.82 µg/mL) | 52.1 (≈ 15.6 µg/mL) | 52.1 (≈ 15.6 µg/mL) | 52.1 (≈ 15.6 µg/mL) | 52.1 (≈ 15.6 µg/mL) | 105 (≈ 31.3 µg/mL) | high antimicrobial activity | 58 (≈ 17.4 µg/mL) | 105 (≈ 31.3 µg/mL) | 26.1 (≈ 7.82 µg/mL) | 52.1 (≈ 15.6 µg/mL) | 105 (≈ 31.3 µg/mL) | 105 (≈ 31.3 µg/mL) | 105 (≈ 31.3 µg/mL) | 105 (≈ 31.3 µg/mL) | 105 (≈ 31.3 µg/mL) | IC50 [14]: 407 µM; MBC [19]: 105 µM (≈ 31.3 µg/mL); zones of inhibition (antifungal activity) [20]: best antifungal activity
